# Key:
# [1] = tested on: ATL cells of ATL patients; assay: MTT assay, ATL cells from peripheral blood of ATL patients; format: cell-based, human; conditions: three cases; 10 μg/ml, 24 hours
# Protocol: Mononuclear cells were isolated from peripheral blood cells of ATL patients and ATL cells were isolated. DHM2EQ was added to the isolated ATL cells of three cases at a final concentration of 10 μg/ml and the cells were incubated for 24 hours. The proliferation-inhibitory effect was examined by the MTT assay. Using the cells to which solvent DMSO had been added in equal volume as controls, the proliferation-inhibitory effect was evaluated by the ratio of the MMT values of DHM2EQ-treated cells to those of DHM2EQ-untreated cells, i.e., (MTT values of DHM2EQ-treated cells/MTT values of DHM2EQ-untreated cells).
# [2] = tested on: normal peripheral blood mononuclear cells; assay: MTT assay, normal peripheral blood mononuclear cells; format: cell-based, human
# Protocol: Mononuclear cells were isolated from normal peripheral blood and DHM2EQ was added at final concentrations of 2, 5, and 10 μg/ml, followed by 72-hour incubation. The proliferation-inhibitory effect was examined by the MTT assay. Cells to which the solvent DMSO had been added in equal volume (0 μg/ml) were used as controls. The cell viability was represented as the ratio to the MTT value of the controls (DHM2EQ-untreated) by letting it=100%.
# Next, to investigate the inhibitory effect of DHMEQ on proliferation of cells of multiple myeloma (MM) patients, MM cells (MM1, MM2, and MM3) were isolated from patients' bone marrow, incubated for 48 hours at the DHMEQ concentration of 10 μg/ml, and the proliferation-inhibitory effect was examined by the MTT assay. Peripheral blood mononuclear cells (PBMC) isolated from normal peripheral blood were used as control cells. In the figure, the vertical axis indicates the relative values of the MTT values of treated cells versus untreated cells, i.e., (DHMEQ-treated/untreated)×100%.
# [3] = tested on: ATL cell lines (MT-1 and TL-Om1); assay: MTT assay, proliferation of ATL cell lines; format: cell-based, human
# Protocol: Cells from the ATL cell lines (MT-1 and TL-Om1) and a control cell line (K562) were plated in 96-well plates at 1×10^5 cells/well and DHM2EQ was added at the desired final concentrations (2, 5, and 10 μg/ml). Cells to which the solvent DMSO had been added in equal volume (0 μg/ml) were used as […] incubation for 72 hours, cell viability was judged by the MTT assay. Relative MTT values were obtained as the ratio of the MMT values of DHM2EQ-treated cells to those of DHM2EQ-untreated cells, i.e., (MTT values of DHM2EQ-treated cells/MTT values of DHM2EQ-untreated cells)×100(%).
# (§1) DHM2EQ was added to the ATL cell lines (MT-1 and TL-Om1) and a control cell line (K562) at a final concentration of 10 μg/ml and the cells were incubated for 12, 24, 48, and 72 hours. The proliferation-inhibitory effect was examined by the MTT assay. Cells to which the solvent DMSO had been added in equal volume were used as controls. Relative MTT values were obtained in the same manner as the aforementioned (1).
# [4] = tested on: human pancreatic cancer cell lines, Panc-1, PK-8, and Colo357; assay: In vitro proliferation of human pancreatic cancer cell lines, DHMEQ with irradiation; format: cell-based
# Protocol: The in vitro suppressive effect of DHMEQ on proliferation of human pancreatic cancer cell lines when DHMEQ and irradiation are used in combination was investigated. The human pancreatic cancer cell lines, Panc-1, PK-8, and Colo357 were plated 10 cm dishes (5×10^5 cells each). After two days, cells were irradiated with either 2.5 Gy or 10 Gy radiation, followed by administration of 10 μg/ml DHMEQ for 4 hours in the combinatin group. The number of cells was measured after 24 hours. Either the point of the completion of irradiation or the point of the start of the drug administration was assumed to be 0 hours.
# KMH2 = assay: MTT assay, KMH2 cells, DHMEQ combined with antitumor agents; format: cell-based; conditions: DHMEQ 10 μg/ml, 48 hours, with camptothecin, daunomycin or etoposide
# Protocol: as §1
# The effects of antitumor agents and the enhancing effect thereon were examined by the MTT assay method as described in Example 5(2).
# In this example, the cells used were KMH2. The horizontal axes in FIG. 31 indicate the concentrations of each antitumor agent the DHMEQ concentration. The concentrations of each anticancer agent were set at three levels. The examination was performed on DHMEQ alone, the antitumor agent alone, or both in combination, at each level. DHMEQ was used at a concentration of 10 μg/ml and the treatment time was 48 hours. The vertical axis indicates the relative values of the MTT values of treated cells versus untreated cells, i.e., (treated/untreated)×100%.
# [5] = tested on: MM cell lines, KMM1, RPMI8226, and U266; assay: Apoptosis of multiple myeloma cell lines (Annexin-V, Hoechst staining); format: cell-based
# Protocol: Further, to investigate apoptosis induction of MM cell lines by DHMEQ, the MM cell lines, KMM1, RPMI8226, and U266, were incubated for 0, 24, and 48 hours at a concentration of 10 μg/ml and the apoptosis was examined by Annexin-V staining.
# Further, to confirm apoptosis induction in MM cell lines by DHMEQ, the MM cell lines, KMM1, RPMI8226, and U266, were incubated for 72 hours at a concentration of 10 μg/ml and the apoptosis was examined by observing nuclear condensation or fragmentation with a fluorescence microscope, using Hoechst staining.
# [6] = tested on: ICAM-1, VCAM-1, and E-selectin; assay: Western blot of adhesion molecule expression in TNF-α-stimulated HUVECs; format: cell-based, human; conditions: HUVECs pretreated with DHMEQ for 2 hours, 10 ng/ml TNF-α
# Protocol: The protein concentration of this supernatant was determined by a liquid of Coomassie Brilliant Blue (Bio-Rad), and concentration was adjusted. Subsequently, 3×SDS loading buffer (150 mM Tris-HCl: pH 6.8, 30% glycerol, 3% SDS (Kanto Kagaku), 0.03 mg/ml bromophenol blue, 150 μl/ml 2-mercaptoethanol (Kanto Kagaku)) was added at a volume equal to half the volume of the lysis buffer that had been added, followed by boiling for 5 min. Using this as a sample, electrophoresis was performed in a 12.5% polyacrylamide gel. After the electrophoresis, the proteins in the gel were transferred to a PVDF membrane (Amersham) and blocked with TBS buffer (20 mM Tris-HCl: pH7.6, 137 mM NaCl) containing 5% skim milk (Snow Brand). Subsequently, the proteins were reacted with the PVDF membrane using antibodies to ICAM-1 (Santa Cruz), VCAM-1 (Santa Cruz), and E-selectin (Santa Cruz), followed by reactions with secondary antibodies (the secondary antibodies to ICAM-1, VCAM-1, and E-selectin (Amersham and Santa Cruz)) suitable to each primary antibody. Further, color was developed by the ECL method, followed by exposure to a film.
smiles,measurement,setting,value
"O=C(NC1=CC(=O)C2OC2C1O)c1ccccc1O (centres unmarked) [DHMEQ, 5,6-epoxy-4-hydroxy-3-salicyloylamino-2-cyclohexenone]",proliferation of ATL cells obtained from patients (MTT),[1],exhibits an inhibitory effect
same,proliferation of normal peripheral blood mononuclear cells (MTT),"[2]; 2, 5, 10 μg/ml, 72 hours",almost no inhibitory effect
same,influence on peripheral blood mononuclear cells (MTT),"[2]; PBMC control, 10 μg/ml, 48 hours",almost no influence
same,"cell proliferation, time course (MTT)","[3]; 10 μg/ml, 12, 24, 48, 72 hours",inhibited in proportion to the DHM2EQ treatment time
same,"cell proliferation, concentration dependence (MTT)","[3]; 2, 5, 10 μg/ml, 72 hours",inhibited in proportion to the DHM2EQ concentrations added
same,suppressive effect on proliferation in combination with irradiation,"[4]; Colo357 and Panc-1, 10 μg/ml 4 hours after irradiation",synergistic suppressive effect
same,enhancement of irradiation effect (2.5 Gy to 10 Gy or equivalent),"[4]; Colo357 and Panc-1, combination with irradiation",four-fold
same,"suppressive effect on proliferation, DHMEQ alone","[4]; PK-8 and Colo357, 10 μg/ml, 4-hour contact, cell number after 24 hours",sufficient suppressive effect
same,radiation dose of equal effect,"[4]; PK-8 and Colo357, 10 μg/ml, 4 hours",2.5 Gy
same,effectiveness of DHMEQ alone,[4]; Panc-1,less effective
same,effect on the action of antitumor agents (MTT),KMH2,enhances the effect of any antitumor agent used
same,apoptosis (Annexin-V staining),"[5]; 10 μg/ml, 0, 24, 48 hours",apoptosis had been induced
same,"apoptosis (Hoechst staining, nuclear fragmentation)","[5]; 10 μg/ml, 72 hours",images of nuclear fragmentation by DHMEQ treatment were observed
same,"expression of ICAM-1, VCAM-1 and E-selectin",[6],markedly suppressed

# Reference: patent US20060183794A1, “Drug composition containing nf-kb inhibitor” (priority 2002, published 2006)
